Results from ChEMBL document CHEMBL2202954, “The effect of PLC-γ2 inhibitors on the growth of human tumour cells” (2012).

Experiments:
Assay type in all cases: functional
SK-MEL-28 = experiment: Cytotoxicity against human SK-MEL-28 cells assessed as cellular growth at 10 uM by SRB assay
U-251 = experiment: Cytotoxicity against human U251 cells assessed as cellular growth at 10 uM by SRB assay
[1] = Cytotoxicity against human NCI-ADR-RES cells assessed as cellular growth at 10 uM by SRB assay
OVCAR-8 = experiment: Cytotoxicity against human OVCAR8 cells assessed as cellular growth at 10 uM by SRB assay
PC-3 = experiment: Cytotoxicity against human PC3 cells assessed as cellular growth at 10 uM by SRB assay
M14 = experiment: Cytotoxicity against human M14 cells assessed as cellular growth at 10 uM by SRB assay
LOX IMVI = experiment: Cytotoxicity against human LOXIMVI cells assessed as cellular growth at 10 uM by SRB assay
SW-620 = experiment: Cytotoxicity against human SW620 cells assessed as cellular growth at 10 uM by SRB assay
UACC-257 = experiment: Cytotoxicity against human UACC257 cells assessed as cellular growth at 10 uM by SRB assay
MCF7 = experiment: Cytotoxicity against human MCF7 cells assessed as cellular growth at 10 uM by SRB assay
TK-10 = experiment: Cytotoxicity against human TK10 cells assessed as cellular growth at 10 uM by SRB assay
NCI-H460 = experiment: Cytotoxicity against human NCI-H460 cells assessed as cellular growth at 10 uM by SRB assay
NCI-H322M = experiment: Cytotoxicity against human NCI-H322M cells assessed as cellular growth at 10 uM by SRB assay
HOP-62 = experiment: Cytotoxicity against human HOP62 cells assessed as cellular growth at 10 uM by SRB assay
A549 = experiment: Cytotoxicity against human A549 cells assessed as cellular growth at 10 uM by SRB assay
ACHN = experiment: Cytotoxicity against human ACHN cells assessed as cellular growth at 10 uM by SRB assay
RPMI-8226 = experiment: Cytotoxicity against human RPMI8226 cells assessed as cellular growth at 10 uM by SRB assay
SF-268 = experiment: Cytotoxicity against human SF268 cells assessed as cellular growth at 10 uM by SRB assay
HCC 2998 = experiment: Cytotoxicity against human HCC2998 cells assessed as cellular growth at 10 uM by SRB assay
K562 = experiment: Cytotoxicity against human K562 cells assessed as cellular growth at 10 uM by SRB assay

Compound | Activity (SK-MEL-28) [%] | Activity (U-251) [%] | Activity [1] [%] | Activity (OVCAR-8) [%] | Activity (PC-3) [%] | Activity (M14) [%] | Activity (LOX IMVI) [%] | Activity (SW-620) [%] | Activity (UACC-257) [%] | Activity (MCF7) [%] | Activity (TK-10) [%] | Activity (NCI-H460) [%] | Activity (NCI-H322M) [%] | Activity (HOP-62) [%] | Activity (A549) [%] | Activity (ACHN) [%] | Activity (RPMI-8226) [%] | Activity (SF-268) [%] | Activity (HCC 2998) [%] | Activity (K562) [%]
Nc1c(C(=O)NCc2ccccc2)sc2nc3c(cc12)C(=O)CCC3 | 118.31 | 99.51 | 100.02 | 114.43 | 106.49 | 113.61 | 103.06 | 105.63 | 106.3 | 110.54 | 115.8 | 101.03 | 123.15 | 115.1 | 103.07 | 112.59 | 109.76 | 112.13 | 107.63 | 111.11
CC1(C)CC(=O)c2cc3c(N)c(C(=O)NCc4ccccc4)sc3nc2C1 | 102.38 | 99.82 | 93.37 | 95.57 | 95.51 | 98.42 | 102.22 | 111.03 | 104.6 | 87.02 | 106.71 | 101.02 | 101.83 | 95.84 | 99.09 | 102.79 | 101.22 | 102.72 | 101.88 | 117.84
O=C(Nc1ccc(S(=O)(=O)Nc2nccs2)cc1)c1cccs1 | 115.4 | 101.85 | 120.26 | 106.2 | 113.66 | 110.69 | 110.65 | 111.55 | 102.54 | 103.71 | 104.94 | 123.68 | 104.64 | 114.96 | 96.04 | 116.25 | 107.43 | 114.27 | 108.36 | 104.24
Nc1c(C(=O)Nc2ccccc2)sc2nc3c(cc12)C(=O)CCC3 | 58.69 | 25.69 | -6.39 | 39.92 | 21.62 | 1.11 | 51.19 | 27.25 | 52.83 | 19.61 | 63.62 | 12.88 | 67.12 | 39.88 | 19.69 | 49.71 | 30.21 | 53.38 | 21.89 | 17.06
Cc1ccc(NC(=O)c2sc3nc4c(cc3c2N)C(=O)CCC4)cc1Cl | 108.49 | 97.87 | 103.82 | 103.45 | 103.74 | 121.85 | 99.16 | 112.63 | 95.07 | 102.05 | 96.53 | 106.36 | 109.22 | 110.02 | 100.84 | 109.05 | 104.81 | 115.11 | 102.57 | 92.98
Cc1ccc(C2=N/C(=C\c3ccccc3)C(=O)O2)cc1 | 105.81 | 107.92 | 107.34 | 102.69 | 104.18 | 108.05 | 105.76 | 102.61 | 101.52 | 103.73 | 112.19 | 109.3 | 114.1 | 108.81 | 107.01 | 104.91 | 102.87 | 98.83 | 99.84 | 106.22
O=C(NCc1ccc(Cl)cc1)c1[nH]c2ccccc2c1Cl | 109.03 | 105.3 | 95.94 | 104.08 | 87.3 | 117.92 | 95.45 | 98.38 | 117.15 | 128.42 | 163.4 | 99.81 | 113.2 | 101.61 | 94.27 | 104.7 | 90.9 | 105.1 | 104.03 | 102.78
Cc1ccc(NC(=O)c2sc3nc4c(cc3c2N)C(=O)CCC4)c(Br)c1 | 107.72 | 94.7 | 102.67 | 98.57 | 102.4 | 105.12 | 102.77 | 97.41 | 96.22 | 96.02 | 131.53 | 101.57 | 103.11 | 95.12 | 92.09 | 107.36 | 109.86 | 100.61 | 102.39 | 104.86
CC1(C)CCc2cc(-c3ccn(S(=O)(=O)c4ccccc4Cl)n3)ccc2O1 | 99.8 | 67.67 | 78.37 | 89.74 | 70.67 | 78.84 | 83.91 | 79.15 | 99.38 | 73.21 | 74.57 | 79.3 | 126.42 | 96.86 | 80.53 | 98.39 | 70.97 | 96.38 | 81.67 | 43
O=c1/c(=C/c2ccc(Cl)cc2Cl)sc2nc(-c3ccccc3)nn12 | 117.34 | 103.07 | 112.24 | 110.37 | 106.44 | 103.59 | 95.09 | 107.15 | 112.2 | 103.07 | 106 | 106.83 | 127.05 | 120.5 | 107.72 | 107.07 | 112.43 | 107.16 | 117.6 | 98.67
Clc1ccccc1Nc1nnc(-c2ccncc2)s1 | 100.34 | 102.87 | 101.59 | 100.07 | 97.24 | 103.83 | 110.09 | 91.55 | 107.89 | 96.02 | 110.92 | 99.69 | 93.72 | 117.96 | 94.98 | 104.09 | 89.16 | 104.7 | 106.44 | 101.4
COc1ccc(S(=O)(=O)n2ccc(-c3ccc4c(c3)CCC(C)(C)O4)n2)cc1 | 98.27 | 84.18 | 57.3 | 83.81 | 78.05 | 86.46 | 79.45 | 90.28 | 57.41 | 73.48 | 68.22 | 75.37 | 101 | 112.43 | 73.96 | 104.15 | 49.25 | 94.69 | 88.92 | 55.64
COc1cccc(C(=O)Nc2nc3ccc(Cl)cc3s2)c1 | 101.98 | 87.76 | 75.07 | 98.65 | 78.16 | 102.54 | 94.46 | 88.38 | 94.74 | 85.29 | 88.7 | 87.74 | 104.25 | 104.17 | 74.01 | 91.34 | 84.4 | 106.92 | 93.56 | 49
O=C(Nc1ccc2oc(=O)ccc2c1)c1ccc(-c2ccc(Cl)c(Cl)c2)o1 | 101.23 | 92.91 | 78.15 | 94.2 | 73.29 | 100.99 | 47.73 | 100.55 | 97.36 | 86.24 | 90.37 | 100.41 | 91.94 | 109.12 | 50.07 | 78.44 | 70.14 | 85.02 | 100.84 | 65.27
O=c1/c(=C/c2ccccc2)sc2nc(-c3ccc(Cl)cc3Cl)nn12 | 109.52 | 105.46 | 111.31 | 102.91 | 115.99 | 103.86 | 96.37 | 101.67 | 83.86 | 100.42 | 98.86 | 106.69 | 131.46 | 95.63 | 103.15 | 109.45 | 111.72 | 107.58 | 122.44 | 99.39
Clc1ccc(-c2nc(-c3cccs3)no2)cc1 | 115.07 | 90.3 | 106.94 | 106.56 | 103.14 | 105.16 | 93.13 | 105.71 | 109.98 | 36.78 | 109.61 | 110.35 | 113.5 | 97.84 | 94.07 | 96.33 | 93.69 | 105.52 | 32.91 | 101.77
